Measurements reported in PubChem BioAssay AID1918947 (Molecular Pharmacology Branch, DTP, NCI, 2023).
Values joined by “and” are separate entries in the source; they are usually repeats but may differ in a detail not shown here. Equal values may be shown once.

Test system: A498 complex spheroid viability
Assay: Anticancer human tumor A498 cell line growth inhibition;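 further: spheroids exposed to agents for seven days before readout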;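 on viability, T/C: 100% = DMSO vehicle-treated spheroids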
Conditions: for viability, T/C: stronger effect = lower value; active means viability on the fitted dose curve at most 10% of control; inactive means the rest
How it was run: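 Drug combinations with the LSD1 inhibitor iadademstat tested on tumor cells co-cultured as spheroids with endothelial cells and mesenchymal stem cells. Concentrations descended in half-log increments from clinical Cmax or 10 microM.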

[1] = curve of first compound, second compound 0.1 µM
[2] = curve of first compound, second compound 0.316 µM
[3] = curve of first compound, second compound 1 µM
[4] = curve of first compound, second compound 3.16 µM
[5] = curve of first compound, second compound 10 µM
[6] = second compound 0.1 µM, first compound 0.00949 µM
[7] = second compound 0.1 µM, first compound 0.03 µM
[8] = second compound 0.1 µM, first compound 0.0949 µM
[9] = second compound 0.1 µM, first compound 0.3 µM
[10] = second compound 0.1 µM, first compound 0.949 µM
[11] = second compound 0.1 µM, first compound 3 µM
[12] = second compound 0.316 µM, first compound 0.00949 µM
[13] = second compound 0.316 µM, first compound 0.03 µM
[14] = second compound 0.316 µM, first compound 0.0949 µM
[15] = second compound 0.316 µM, first compound 0.3 µM
[16] = second compound 0.316 µM, first compound 0.949 µM
[17] = second compound 0.316 µM, first compound 3 µM
[18] = second compound 1 µM, first compound 0.00949 µM
[19] = second compound 1 µM, first compound 0.03 µM
[20] = second compound 1 µM, first compound 0.0949 µM
[21] = second compound 1 µM, first compound 0.3 µM
[22] = second compound 1 µM, first compound 0.949 µM
[23] = second compound 1 µM, first compound 3 µM
[24] = second compound 3.16 µM, first compound 0.00949 µM
[25] = second compound 3.16 µM, first compound 0.03 µM
[26] = second compound 3.16 µM, first compound 0.0949 µM
[27] = second compound 3.16 µM, first compound 0.3 µM
[28] = second compound 3.16 µM, first compound 0.949 µM
[29] = second compound 3.16 µM, first compound 3 µM
[30] = second compound 10 µM, first compound 0.00949 µM
[31] = second compound 10 µM, first compound 0.03 µM
[32] = second compound 10 µM, first compound 0.0949 µM
[33] = second compound 10 µM, first compound 0.3 µM
[34] = second compound 10 µM, first compound 0.949 µM
[35] = second compound 10 µM, first compound 3 µM
[36] = second compound 0.1 µM, first compound 0.0316 µM
[37] = second compound 0.1 µM, first compound 0.1 µM
[38] = second compound 0.316 µM, first compound 0.0316 µM
[39] = second compound 0.316 µM, first compound 0.1 µM
[40] = second compound 1 µM, first compound 0.0316 µM
[41] = second compound 1 µM, first compound 0.1 µM
[42] = second compound 3.16 µM, first compound 0.0316 µM
[43] = second compound 3.16 µM, first compound 0.1 µM
[44] = second compound 10 µM, first compound 0.0316 µM
[45] = second compound 10 µM, first compound 0.1 µM

COc1cc(C2c3cc4c(cc3C(OC3OC5COC(C)OC5C(O)C3O)C3COC(=O)C23)OCO4)cc(OC)c1O (configuration not stated) + NC1CC1c1ccc(-c2cccc(O)c2)cc1
296 nM: IC50 [4]
1110 nM: IC50 [3]
> 3000 nM: IC50 [2]
inactive: viability, T/C [6] 75.3% | viability, T/C [7] 68.7% | viability, T/C [8] 62.1% | viability, T/C [9] 62.8% | viability, T/C [10] 58.2% | viability, T/C [11] 44.4% | viability, T/C [12] 87.3% | viability, T/C [13] 74.7% | viability, T/C [14] 68.7% | viability, T/C [15] 58.6% | viability, T/C [16] 55.6% | viability, T/C [17] 51.3% | viability, T/C [18] 76.7% | viability, T/C [19] 63% | viability, T/C [20] 59.9% | viability, T/C [21] 49.8% | viability, T/C [22] 54.1% | viability, T/C [23] 46.5% | viability, T/C [24] 66.4% | viability, T/C [25] 53.6% | viability, T/C [26] 55.9% | viability, T/C [27] 52.2% | viability, T/C [28] 46.1% | viability, T/C [29] 42.9% | viability, T/C [30] 63.5% | viability, T/C [31] 61.1% | viability, T/C [32] 57.5% | viability, T/C [33] 51.7% | viability, T/C [34] 47.4% | viability, T/C [35] 41.7%
1800 nM: IC50 [1]
523 nM: IC50 [5]

CC(C)c1c(-c2ccccc2)nc2c(C#N)c[nH]n2c1=O + NC1CCC(NC2CC2c2ccccc2)CC1
inactive: viability, T/C [36] 88.3% | viability, T/C [37] 87.8% | viability, T/C (second compound 0.1 µM, first compound 0.316 µM) 89.3% | viability, T/C (second compound 0.1 µM, first compound 1 µM) 87.3% | viability, T/C (second compound 0.1 µM, first compound 3.16 µM) 91.3% | viability, T/C (second compound 0.1 µM, first compound 10 µM) 86.5% | viability, T/C [38] 84% | viability, T/C [39] 85.8% | viability, T/C (second compound 0.316 µM, first compound 0.316 µM) 87% | viability, T/C (second compound 0.316 µM, first compound 1 µM) 87.8% | viability, T/C (second compound 0.316 µM, first compound 3.16 µM) 82.7% | viability, T/C (second compound 0.316 µM, first compound 10 µM) 85% | viability, T/C [40] 88.8% | viability, T/C [41] 86.4% | viability, T/C (second compound 1 µM, first compound 0.316 µM) 89.2% | viability, T/C (second compound 1 µM, first compound 1 µM) 88.2% | viability, T/C (second compound 1 µM, first compound 3.16 µM) 86% | viability, T/C (second compound 1 µM, first compound 10 µM) 86.9% | viability, T/C [42] 84% | viability, T/C [43] 79.9% | viability, T/C (second compound 3.16 µM, first compound 0.316 µM) 82.3% | viability, T/C (second compound 3.16 µM, first compound 1 µM) 87.6% | viability, T/C (second compound 3.16 µM, first compound 3.16 µM) 83.8% | viability, T/C (second compound 3.16 µM, first compound 10 µM) 82.4% | viability, T/C [44] 64% | viability, T/C [45] 69.3% | viability, T/C (second compound 10 µM, first compound 0.316 µM) 66.3% | viability, T/C (second compound 10 µM, first compound 1 µM) 69.6% | viability, T/C (second compound 10 µM, first compound 3.16 µM) 66.4% | viability, T/C (second compound 10 µM, first compound 10 µM) 69.5%
> 10000 nM: IC50 [1] | IC50 [2] | IC50 [3] | IC50 [4] | IC50 [5]

Cn1ncnc1C1c2n[nH]c(=O)c3cc(F)cc(c23)NC1c1ccc(F)cc1 (configuration not stated) + NC1CC1c1ccc(-c2cccc(O)c2)cc1
> 100 nM: IC50 [1] | IC50 [2] | IC50 [3] | IC50 [4] | IC50 [5]
inactive: viability, T/C (second compound 0.1 µM, first compound 0.000316 µM) 94.6% | viability, T/C (second compound 0.1 µM, first compound 0.001 µM) 97.7% | viability, T/C (second compound 0.1 µM, first compound 0.00316 µM) 104% | viability, T/C (second compound 0.1 µM, first compound 0.01 µM) 94.9% | viability, T/C [36] 96.2% | viability, T/C [37] 94.2% | viability, T/C (second compound 0.316 µM, first compound 0.000316 µM) 103% | viability, T/C (second compound 0.316 µM, first compound 0.001 µM) 111% | viability, T/C (second compound 0.316 µM, first compound 0.00316 µM) 104% | viability, T/C (second compound 0.316 µM, first compound 0.01 µM) 92.1% | viability, T/C [38] 100% | viability, T/C [39] 93.3% | viability, T/C (second compound 1 µM, first compound 0.000316 µM) 89.3% | viability, T/C (second compound 1 µM, first compound 0.001 µM) 93.3% | viability, T/C (second compound 1 µM, first compound 0.00316 µM) 96.4% | viability, T/C (second compound 1 µM, first compound 0.01 µM) 84.6% | viability, T/C [40] 89.1% | viability, T/C [41] 87.8% | viability, T/C (second compound 3.16 µM, first compound 0.000316 µM) 87% | viability, T/C (second compound 3.16 µM, first compound 0.001 µM) 89.8% | viability, T/C (second compound 3.16 µM, first compound 0.00316 µM) 90.2% | viability, T/C (second compound 3.16 µM, first compound 0.01 µM) 89% | viability, T/C [42] 91.9% | viability, T/C [43] 77.8% | viability, T/C (second compound 10 µM, first compound 0.000316 µM) 80.8% | viability, T/C (second compound 10 µM, first compound 0.001 µM) 86.6% | viability, T/C (second compound 10 µM, first compound 0.00316 µM) 91.3% | viability, T/C (second compound 10 µM, first compound 0.01 µM) 87.3% | viability, T/C [44] 78.6% | viability, T/C [45] 78.4%

NS(=O)(=O)OCC1CC(n2ccc3c(NC4CCc5ccccc54)ncnc32)CC1O (configuration not stated) + NC1CCC(NC2CC2c2ccccc2)CC1
active: viability, T/C [28] 8.41% | viability, T/C [29] 6.43% | viability, T/C [31] 8.27% | viability, T/C [32] 6.84% | viability, T/C [33] 5.05% | viability, T/C [34] 4.15% | viability, T/C [35] 6.13%
inactive: viability, T/C [6] 61.1% | viability, T/C [7] 43.3% | viability, T/C [8] 35% | viability, T/C [9] 24% | viability, T/C [10] 19.4% | viability, T/C [11] 15.3% | viability, T/C [12] 64.5% | viability, T/C [13] 41.2% | viability, T/C [14] 30.8% | viability, T/C [15] 22.7% | viability, T/C [16] 17.8% | viability, T/C [17] 15.6% | viability, T/C [18] 47.8% | viability, T/C [19] 29.6% | viability, T/C [20] 21.4% | viability, T/C [21] 19.5% | viability, T/C [22] 14.3% | viability, T/C [23] 11.8% | viability, T/C [24] 31.8% | viability, T/C [25] 15.6% | viability, T/C [26] 16.6% | viability, T/C [27] 11.5% | viability, T/C [30] 11.8%
20.8 nM: IC50 [1]
20.2 nM: IC50 [2]
< 9.49 nM: IC50 [3] | IC50 [4] | IC50 [5]

Nc1ccccc1NC(=O)c1ccc(CNC(=O)OCc2cccnc2)cc1 + NC1CC1c1ccc(-c2cccc(O)c2)cc1
284 nM: IC50 [3]
inactive: viability, T/C [6] 89.5% | viability, T/C [7] 88% | viability, T/C [8] 72.6% | viability, T/C [9] 59.2% | viability, T/C [10] 19.5% | viability, T/C [12] 93.1% | viability, T/C [13] 95.4% | viability, T/C [14] 84.1% | viability, T/C [15] 50.6% | viability, T/C [16] 21.1% | viability, T/C [18] 88.3% | viability, T/C [19] 89.3% | viability, T/C [20] 77.7% | viability, T/C [21] 46% | viability, T/C [22] 20.6% | viability, T/C [24] 81% | viability, T/C [25] 87.5% | viability, T/C [26] 78.2% | viability, T/C [27] 55.7% | viability, T/C [28] 19.2% | viability, T/C [30] 86.2% | viability, T/C [31] 78.6% | viability, T/C [32] 70.7% | viability, T/C [33] 48.1% | viability, T/C [34] 19.4%
357 nM: IC50 [1]
active: viability, T/C [11] 1.7% | viability, T/C [17] 1.7% | viability, T/C [23] 1.74% | viability, T/C [29] 2.01% | viability, T/C [35] 1.69%
362 nM: IC50 [4]
333 nM: IC50 [2]
266 nM: IC50 [5]

CC1COCCN1c1cc(C2(S(C)(=N)=O)CC2)nc(-c2ccnc3[nH]ccc23)n1 (configuration not stated)
605 nM and 543 nM: IC50 (curve of compound)
inactive: viability, T/C (compound 0.0316 µM) 98.7% and 99.7% | viability, T/C (compound 0.1 µM) 98.2% and 97.2% | viability, T/C (compound 0.316 µM) 69.6% and 68.1% | viability, T/C (compound 1 µM) 34.2% and 28.7% | viability, T/C (compound 3.16 µM) 19% and 19.6% | viability, T/C (compound 10 µM) 13.1% and 12%
